Results taken from patent publication US10435371B2, “Multifunctional aminoquinoline therapeutic agent” (LOHOCLA RESEARCH CORPORATION, priority 2014, dated 2019).

Assays:
5-HT1A (Serotonin Rs) = 5-HT1A (Serotonin Rs) (Homo sapiens, UniProt P08908); assay: PDSP radioligand binding
delta opiate receptor = delta opiate receptor (Homo sapiens, UniProt P41143); assay: cAMP accumulation, HeLa cells transfected with D1 receptor, DOR and AC5; format: cell-based; set-up: expressed in transfected cells; settings: HeLa cells, AC5
[1] = tested on: rats treated with cisplatin; assay: Prevention of cisplatin-induced neuropathic pain; format: in vivo, rat; settings: 50 mg/kg intragastric twice daily for 14 days starting 1 h after first cisplatin injection; FIG. 14
Procedure: (§1) This example illustrates that treatment of animals with DCUKA following insult, but prior to development of neuropathic pain, can prevent the development of the pain. Rats were treated with cisplatin or CFA, and mechanical pain threshold was measured, as described under Example 5.
Prevention of Cisplatin-Induced Neuropathic Pain by DCUKA. One day after baseline measurement of the mechanical pain threshold, rats were injected i.p. with cisplatin. Cisplatin injections were again given on days 4, 8, and 12. Starting one hour after the first cisplatin injection, rats were given 50 mg/kg DCUKA or vehicle via intragastric gavage twice daily for 14 days. After the last treatment (day 15) the mechanical pain threshold was again tested. The pain threshold was then tested once weekly for 4 weeks, with no further treatments.

ethanol dependent rats = assay: Operant responding for alcohol in ethanol vapor-exposed dependent rats; format: in vivo, rat; settings: ethanol vapor-exposed rats; FIG. 18
Source text: This example illustrates that ethanol dependent rats are motivated to work for ethanol reward during a period of forced abstinence and that DCUK-OEt reduces responding for the alcohol reward.
The methods used in this study are extensively described in (Vendruscolo et al., 2012). The rats were first trained to self-administer ethanol in an operant chamber. The rats were given free-choice access to alcohol (10% w/v) and water for 1 day in their home cages to habituate them to the taste of alcohol. The rats were then subjected to an overnight session in the operant chambers with access to one lever that delivered water (FR1). Food was available ad libitum during this training. After 1 day off, the rats were subjected to a 2 hour session (FR1) for 1 day and a 1 hour session (FR1) the next day, with one lever delivering alcohol. All of the subsequent sessions lasted 30 minutes, and two levers were available (left lever: water; right lever: alcohol). Once trained, the rats were made dependent by chronic, intermittent exposure to alcohol vapors (Gilpin et al., 2008). They underwent cycles of 14 hours of ethanol exposure (blood alcohol levels during vapor exposure ranged between 150 and 250 mg %) and 10 hours in the absence of ethanol vapor, during which behavioral testing for acute withdrawal occurred (i.e., 6-8 hours after vapor was turned off, when brain and blood alcohol levels were negligible). Nondependent rats were those not exposed to alcohol vapor. Pharmacological testing occurred after at least 2 months of vapor exposure, when full dependence was observed. DCUKA-OEt was administered i.p. at the doses specified in FIG. 18, sixty minutes prior to placing the animal in the operant chamber. The vehicle for DCUK-OEt was injected in certain animals as a control.

[2] = biological target: GABA site, GABA-A Receptor; assay: PDSP radioligand displacement, [^3H]Muscimol; set-up: species or system rat; settings: read-out: Binding constant Ki, GABA site, GABA-A Receptor
[3] = biological target: β2 (Adrenergic Rs (beta adrenergic)) (Homo sapiens, UniProt P07550); assay: PDSP radioligand binding
[4] = biological target: CaV1.2 (Voltage sensitive Ca** channel (L-type)) (Homo sapiens, UniProt Q13936); assay: PDSP radioligand binding; settings: Table 3, the 6th table r22c0; read-out: Ki, CaV1.2 (lack of affinity)
[5] = biological target: BDZ site, GABA-A Receptor; assay: PDSP radioligand displacement, [^3H]Flunitrazepam; set-up: species or system rat; settings: read-out: Binding constant Ki, BDZ site, GABA-A Receptor
[6] = tested on: rats treated with streptozotocin; assay: Reversal of streptozotocin-induced (diabetic) neuropathic pain (von Frey); format: in vivo, rat
[7] = tested on: rats treated with cisplatin; assay: Reversal of cisplatin-induced neuropathic pain (von Frey mechanical pain threshold); format: in vivo, rat; settings: 50 mg/kg oral
[8] = biological target: M2 (Muscarinic Cholinergic Rs) (Homo sapiens, UniProt P08172); assay: PDSP radioligand binding
[9] = tested on: rats treated with Complete Freund's Adjuvant; assay: Naltrindole reversal of the effect of DCUKA on CFA-induced neuropathic pain; format: in vivo, rat; settings: DCUKA 50 mg/kg oral plus intraplantar saline, 2 days after CFA; FIG. 12
Procedure: Rats were tested for baseline mechanical pain threshold (von Frey test) and given an intraplantar injection of Complete Freunds Adjuvant (CFA) in the left hind paw.

5-HT3 (Serotonin Rs) = 5-HT3 (Serotonin Rs) (Homo sapiens, UniProt P46098); assay: PDSP radioligand binding
D2 (Dopamine Rs) = D2 (Dopamine Rs) (Homo sapiens, UniProt P14416); assay: PDSP radioligand binding
MOR (μ opiate receptor) = MOR (μ opiate receptor) (Homo sapiens, UniProt P35372); assay: PDSP radioligand binding, [^3H]DAMGO
[10] = tested on: rats treated with Complete Freund's Adjuvant; assay: Prevention of CFA-induced neuropathic pain; format: in vivo, rat; settings: 50 mg/kg oral, four treatments at 12-hour intervals starting after CFA injection; FIG. 13
Procedure: as §1
Prevention of CFA-Induced Neuropathic Pain by DCUKA. After baseline measurement of the mechanical pain threshold, rats were treated with CFA as described earlier. Following the CFA injection, rats were given vehicle (canola oil/gelatin) (n=7) or 50 mg/kg DCUKA (n=7) orally by intragastric gavage. Rats then received three more treatments with vehicle or DCUKA at 12-hour intervals. At 60 hours after CFA treatment, the mechanical pain threshold was again tested.

5-HT1B (Serotonin Rs) = 5-HT1B (Serotonin Rs) (Homo sapiens, UniProt P28222); assay: PDSP radioligand binding
D1 (Dopamine Rs) = D1 (Dopamine Rs) (Homo sapiens, UniProt P21728); assay: PDSP radioligand binding
[11] = biological target: M1 (Muscarinic Cholinergic Rs) (Homo sapiens, UniProt P11229); assay: PDSP radioligand binding
EP2 (Prostaglandin Rs) = EP2 (Prostaglandin Rs) (Homo sapiens, UniProt P43116); assay: PDSP radioligand binding; settings: Table 3, the 6th table r12c1; read-out: Ki, EP2 (lack of affinity)
Sequence of EP2 (Prostaglandin Rs) (P43116 whole entry): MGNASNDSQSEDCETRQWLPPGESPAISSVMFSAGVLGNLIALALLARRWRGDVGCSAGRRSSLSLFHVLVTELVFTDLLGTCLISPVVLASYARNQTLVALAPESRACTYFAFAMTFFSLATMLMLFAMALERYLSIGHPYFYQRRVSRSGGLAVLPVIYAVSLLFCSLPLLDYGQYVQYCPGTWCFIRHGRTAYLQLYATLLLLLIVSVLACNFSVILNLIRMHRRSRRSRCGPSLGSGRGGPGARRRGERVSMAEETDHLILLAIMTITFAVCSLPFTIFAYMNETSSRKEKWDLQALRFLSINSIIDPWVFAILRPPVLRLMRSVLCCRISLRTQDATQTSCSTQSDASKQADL

Sequence of delta opiate receptor (P41143 whole entry): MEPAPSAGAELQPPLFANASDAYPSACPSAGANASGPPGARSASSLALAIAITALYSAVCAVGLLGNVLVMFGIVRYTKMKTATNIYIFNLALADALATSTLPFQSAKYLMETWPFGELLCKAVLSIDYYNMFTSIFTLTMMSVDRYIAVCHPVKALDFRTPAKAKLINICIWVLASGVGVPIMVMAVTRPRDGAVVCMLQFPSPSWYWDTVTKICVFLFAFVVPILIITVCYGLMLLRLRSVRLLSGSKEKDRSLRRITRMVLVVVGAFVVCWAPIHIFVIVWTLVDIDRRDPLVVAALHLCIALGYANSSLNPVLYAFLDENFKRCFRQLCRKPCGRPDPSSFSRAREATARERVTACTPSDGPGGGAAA
Sequence of D2 (Dopamine Rs) (P14416 whole entry): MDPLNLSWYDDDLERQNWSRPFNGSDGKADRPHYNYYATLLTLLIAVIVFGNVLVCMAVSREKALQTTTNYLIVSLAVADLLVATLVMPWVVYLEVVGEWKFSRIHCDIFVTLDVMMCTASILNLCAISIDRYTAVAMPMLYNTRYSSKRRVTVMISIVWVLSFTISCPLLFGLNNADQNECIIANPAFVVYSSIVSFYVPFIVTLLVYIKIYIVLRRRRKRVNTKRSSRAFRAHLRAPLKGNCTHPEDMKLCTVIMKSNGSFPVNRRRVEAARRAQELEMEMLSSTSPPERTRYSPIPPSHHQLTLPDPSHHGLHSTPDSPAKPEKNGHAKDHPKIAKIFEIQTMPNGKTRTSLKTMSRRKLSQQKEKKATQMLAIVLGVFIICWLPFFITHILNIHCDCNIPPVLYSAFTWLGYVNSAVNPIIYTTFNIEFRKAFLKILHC
Sequence of 5-HT1B (Serotonin Rs) (P28222 whole entry): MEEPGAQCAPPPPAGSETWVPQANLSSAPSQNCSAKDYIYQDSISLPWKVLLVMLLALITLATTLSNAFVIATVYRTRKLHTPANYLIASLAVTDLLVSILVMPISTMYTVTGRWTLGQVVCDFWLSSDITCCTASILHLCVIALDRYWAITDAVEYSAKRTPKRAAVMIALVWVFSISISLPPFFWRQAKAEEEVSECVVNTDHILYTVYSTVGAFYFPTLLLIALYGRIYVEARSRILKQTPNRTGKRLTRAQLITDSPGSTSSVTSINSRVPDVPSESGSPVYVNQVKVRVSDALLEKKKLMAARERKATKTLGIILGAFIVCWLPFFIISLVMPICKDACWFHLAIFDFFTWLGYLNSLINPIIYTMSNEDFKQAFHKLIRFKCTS
Sequence of β2 (Adrenergic Rs (beta adrenergic)) (P07550 whole entry): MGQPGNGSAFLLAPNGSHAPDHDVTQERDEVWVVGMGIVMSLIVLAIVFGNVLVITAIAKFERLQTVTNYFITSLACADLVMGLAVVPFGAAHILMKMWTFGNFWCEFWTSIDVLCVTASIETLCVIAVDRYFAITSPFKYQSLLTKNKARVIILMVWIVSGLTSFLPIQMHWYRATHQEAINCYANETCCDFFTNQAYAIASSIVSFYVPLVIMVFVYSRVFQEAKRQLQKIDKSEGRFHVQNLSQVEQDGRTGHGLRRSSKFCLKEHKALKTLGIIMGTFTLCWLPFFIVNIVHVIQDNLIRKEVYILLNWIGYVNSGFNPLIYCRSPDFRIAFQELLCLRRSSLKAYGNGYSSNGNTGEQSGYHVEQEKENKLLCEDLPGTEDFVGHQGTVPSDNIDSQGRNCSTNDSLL
Sequence of 5-HT3 (Serotonin Rs) (P46098 24-478): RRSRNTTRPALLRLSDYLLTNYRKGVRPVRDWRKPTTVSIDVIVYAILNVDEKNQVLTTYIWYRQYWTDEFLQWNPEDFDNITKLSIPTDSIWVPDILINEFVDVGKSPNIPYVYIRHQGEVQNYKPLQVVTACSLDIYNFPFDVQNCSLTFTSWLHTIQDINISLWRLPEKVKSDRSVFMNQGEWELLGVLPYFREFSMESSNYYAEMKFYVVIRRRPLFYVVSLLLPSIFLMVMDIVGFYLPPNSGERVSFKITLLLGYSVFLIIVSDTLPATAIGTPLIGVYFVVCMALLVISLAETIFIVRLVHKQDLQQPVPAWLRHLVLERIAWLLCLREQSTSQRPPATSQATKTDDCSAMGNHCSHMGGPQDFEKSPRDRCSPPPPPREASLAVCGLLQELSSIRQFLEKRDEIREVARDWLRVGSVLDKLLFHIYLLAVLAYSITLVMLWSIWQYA
Sequence of M1 (Muscarinic Cholinergic Rs) (P11229 whole entry): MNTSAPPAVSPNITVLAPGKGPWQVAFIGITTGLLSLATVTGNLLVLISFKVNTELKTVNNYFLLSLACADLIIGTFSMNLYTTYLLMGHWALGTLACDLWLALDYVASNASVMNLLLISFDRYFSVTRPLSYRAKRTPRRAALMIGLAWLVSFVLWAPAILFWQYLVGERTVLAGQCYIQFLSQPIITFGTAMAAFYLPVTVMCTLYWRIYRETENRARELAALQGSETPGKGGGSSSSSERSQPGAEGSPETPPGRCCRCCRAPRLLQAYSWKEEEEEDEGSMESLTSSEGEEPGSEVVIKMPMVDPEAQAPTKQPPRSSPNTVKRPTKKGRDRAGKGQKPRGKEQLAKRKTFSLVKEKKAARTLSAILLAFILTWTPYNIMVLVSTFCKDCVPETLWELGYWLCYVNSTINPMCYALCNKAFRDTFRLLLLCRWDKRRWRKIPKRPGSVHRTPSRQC
Sequence of 5-HT1A (Serotonin Rs) (P08908 whole entry): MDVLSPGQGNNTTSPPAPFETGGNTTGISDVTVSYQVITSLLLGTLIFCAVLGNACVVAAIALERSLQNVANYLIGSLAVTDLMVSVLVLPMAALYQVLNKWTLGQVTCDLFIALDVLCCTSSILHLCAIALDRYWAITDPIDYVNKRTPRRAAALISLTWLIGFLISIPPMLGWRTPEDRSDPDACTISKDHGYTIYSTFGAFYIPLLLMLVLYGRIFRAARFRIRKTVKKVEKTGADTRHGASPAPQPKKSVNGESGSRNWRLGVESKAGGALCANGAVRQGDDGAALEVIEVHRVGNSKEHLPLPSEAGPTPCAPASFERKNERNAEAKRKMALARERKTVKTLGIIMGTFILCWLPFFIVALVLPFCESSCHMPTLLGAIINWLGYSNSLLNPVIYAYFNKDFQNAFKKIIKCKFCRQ
Sequence of MOR (μ opiate receptor) (P35372 whole entry): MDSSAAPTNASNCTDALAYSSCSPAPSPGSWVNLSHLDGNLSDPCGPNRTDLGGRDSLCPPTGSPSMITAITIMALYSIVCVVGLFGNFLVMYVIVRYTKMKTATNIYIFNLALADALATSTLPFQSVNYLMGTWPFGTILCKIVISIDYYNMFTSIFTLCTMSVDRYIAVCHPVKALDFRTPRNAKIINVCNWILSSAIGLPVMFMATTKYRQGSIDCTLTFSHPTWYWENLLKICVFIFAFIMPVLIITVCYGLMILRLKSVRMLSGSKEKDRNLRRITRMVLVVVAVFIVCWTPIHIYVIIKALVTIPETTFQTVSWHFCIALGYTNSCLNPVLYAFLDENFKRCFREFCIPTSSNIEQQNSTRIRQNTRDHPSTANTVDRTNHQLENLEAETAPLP
Sequence of D1 (Dopamine Rs) (P21728 whole entry): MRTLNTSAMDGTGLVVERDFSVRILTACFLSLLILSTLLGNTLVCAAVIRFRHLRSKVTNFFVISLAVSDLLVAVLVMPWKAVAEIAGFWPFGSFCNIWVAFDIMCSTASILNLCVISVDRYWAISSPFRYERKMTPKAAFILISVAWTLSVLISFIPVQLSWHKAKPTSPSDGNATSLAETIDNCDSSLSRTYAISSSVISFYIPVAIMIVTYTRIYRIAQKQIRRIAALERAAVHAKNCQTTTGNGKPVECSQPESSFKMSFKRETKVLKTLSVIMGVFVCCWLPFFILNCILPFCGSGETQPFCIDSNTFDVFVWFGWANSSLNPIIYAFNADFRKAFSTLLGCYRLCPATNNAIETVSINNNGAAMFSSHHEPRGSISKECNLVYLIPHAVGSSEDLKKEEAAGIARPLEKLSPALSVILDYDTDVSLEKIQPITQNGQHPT
Sequence of M2 (Muscarinic Cholinergic Rs) (P08172 whole entry): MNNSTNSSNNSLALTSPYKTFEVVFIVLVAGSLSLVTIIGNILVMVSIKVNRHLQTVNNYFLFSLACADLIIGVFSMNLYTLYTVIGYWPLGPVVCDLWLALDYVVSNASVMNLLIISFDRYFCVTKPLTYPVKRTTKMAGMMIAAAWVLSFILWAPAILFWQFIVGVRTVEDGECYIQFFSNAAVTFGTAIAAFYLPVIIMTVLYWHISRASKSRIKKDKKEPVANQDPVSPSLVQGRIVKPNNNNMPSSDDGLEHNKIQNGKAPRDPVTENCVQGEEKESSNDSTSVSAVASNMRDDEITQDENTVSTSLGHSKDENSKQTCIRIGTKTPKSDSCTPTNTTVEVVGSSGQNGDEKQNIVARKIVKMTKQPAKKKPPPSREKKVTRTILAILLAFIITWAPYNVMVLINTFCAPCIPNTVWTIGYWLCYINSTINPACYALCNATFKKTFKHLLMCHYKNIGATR

O=C(O)c1cc(NC(=O)N(c2ccccc2)c2ccccc2)c2c(Cl)cc(Cl)cc2n1 [DCUKA, 5,7-dichloro-4-(3,3-diphenylureido)quinoline-2-carboxylic acid]
Ki (5-HT1A (Serotonin Rs)): > 10 µM
Character of action at the delta opiate receptor (delta opiate receptor): agonist
IC50 (delta opiate receptor; D1, DOR, 10 μM DA, DCUKA 0.25-20 μM, regression analysis, FIG. 3, read-out: IC50 for inhibition of cAMP accumulation): 3.9 ± 0.47 µM
Mechanical pain threshold (paw withdrawal threshold) over days [1]: no statistically significant decrease of pain threshold compared to the pre-cisplatin baseline
Alcohol self-administration compared to baseline (ethanol dependent rats): no significant effect on repressing alcohol self-administration
Ki [2]: 6.6 ± 1.8 µM
Ki [3]: > 10 µM
Ki [4]: > 10 µM
Ki [5]: > 10 µM
Mechanical pain threshold, ratio to baseline ([6]; 14 days after STZ, 40 or 50 mg/kg oral, 90 minutes, three experiments combined, FIG. 10): reversed to the baseline level
Difference between 50 mg/kg DCUKA and 0 mg/kg DCUKA in ratio of mechanical pain threshold to pre-STZ threshold ([6]; Fisher's LSD, p<0.0001, FIG. 10): 0.60
Doses that reversed the effect of STZ on pain threshold back to baseline ([6]; oral, 90 minutes, meta-analysis of four experiments, FIG. 11): ≥ 30 mg/kg
Mechanical pain threshold, ratio to baseline ([7]; cisplatin i.p. 7 mg/kg total, day 14, 1 and 2 hours, FIG. 6): significantly reversed the drop in mechanical pain threshold
Mechanical pain threshold, ratio to pre-cisplatin baseline ([7]; rats, 1 hour after dosing, six experiments combined, FIG. 5): increases the mechanical pain threshold to control levels
Ki [8]: > 10 µM
Mechanical pain threshold [9]: increased the pain threshold back to baseline level
Ki (5-HT3 (Serotonin Rs)): > 10 µM
Ki (D2 (Dopamine Rs)): > 10 µM
Ki (MOR (μ opiate receptor)): > 10 µM
Mechanical pain threshold at 60 hours after CFA, ratio to baseline [10]: the threshold was not reduced
Ki (5-HT1B (Serotonin Rs)): > 10 µM
Ki (D1 (Dopamine Rs)): > 10 µM
Ki [11]: > 10 µM
Ki (EP2 (Prostaglandin Rs)): > 10 µM
